According to article PMC6222422, “Synthesis and Biological Evaluation of Novel Indole-Derived Thioureas” (Molecules : A Journal of Synthetic Chemistry and Natural …, 2018):
Values after ≈ are worked out from the molar mass of the structure shown.

Legend:
in vitro [1] = details: cattle (Bos taurus)
S. aureus ATCC 29213 [2] = assay: MIC, twofold serial agar dilution; format: cell-based; details: Staphylococcus aureus, ATCC29213, 18 h, 35 °C, read-out: minimal inhibitory concentrations (MIC)
in vitro [3] = details: African green monkey (Cercopithecus aethiops)
B. subtilis ATCC 6633 [4] = assay: disc diffusion method; format: cell-based, Bacillus subtilis; details: Bacillus subtilis, ATCC6633, applied 400 µg per disc, dash = lack of the growth inhibition area, read-out: diameter of growth inhibitory zone (GIZ)
HSV-1 = assay: microbe, parasite or virus in culture; format: cell-based, human herpes 1; details: Human alphaherpesvirus 1, Vero 76, read-out: HSV-1 EC50
VV = assay: microbe, parasite or virus in culture; format: cell-based; details: Orthopoxvirus vaccinia, Vero 76, read-out: VV EC50
M. luteus ATCC 9341 = assay: disc diffusion method; format: cell-based, Micrococcus luteus; details: Micrococcus luteus, ATCC9341, applied 400 µg per disc, dash = lack of the growth inhibition area, read-out: diameter of growth inhibitory zone (GIZ)
HIV-1 = assay: microbe, parasite or virus in culture; details: Human immunodeficiency virus 1, MT4, read-out: HIV-1 EC50
in vitro [5] = details: human
CV-B5 = assay: microbe, parasite or virus in culture; format: cell-based, coxsackievirus B5; details: Enterovirus B, CVB5, Vero 76, read-out: CV-B5 EC50
[6] = system: hospital methicillin-susceptible strains of S. aureus (MSSA); assay: MIC against hospital strains; details: Staphylococcus aureus
B. cereus ATCC 11778 = assay: disc diffusion method; format: cell-based, Bacillus cereus; details: Bacillus cereus, ATCC11778, applied 400 µg per disc, dash = lack of the growth inhibition area, read-out: diameter of growth inhibitory zone (GIZ)
S. aureus ATCC 29213 [7] = assay: disc diffusion method; format: cell-based, Staphylococcus aureus; details: Staphylococcus aureus, ATCC29213, applied 400 µg per disc, dash = lack of the growth inhibition area, read-out: diameter of growth inhibitory zone (GIZ)
Sb-1 = assay: microbe, parasite or virus in culture; format: cell-based, poliovirus type-1; details: Enterovirus C, Vero 76, read-out: Sb-1 EC50
S. aureus ATCC 6538 [8] = assay: disc diffusion method; format: cell-based, Staphylococcus aureus; details: Staphylococcus aureus, ATCC6538, applied 400 µg per disc, dash = lack of the growth inhibition area, read-out: diameter of growth inhibitory zone (GIZ)
[9] = system: S. epidermidis ATCC 12228; assay: disc diffusion method; format: cell-based, Staphylococcus epidermidis; details: Staphylococcus epidermidis, ATCC12228, applied 400 µg per disc, dash = lack of the growth inhibition area, read-out: diameter of growth inhibitory zone (GIZ)
B. subtilis ATCC 6633 [10] = assay: MIC, twofold serial agar dilution; format: cell-based; details: Bacillus subtilis, ATCC6633, 18 h, 35 °C, read-out: minimal inhibitory concentrations (MIC)
M. luteus ATCC 10240 [11] = assay: disc diffusion method; format: cell-based, Micrococcus luteus; details: Micrococcus luteus, ATCC10240, applied 400 µg per disc, dash = lack of the growth inhibition area, read-out: diameter of growth inhibitory zone (GIZ)
S. aureus NCTC 4163 [12] = assay: disc diffusion method; format: cell-based, Staphylococcus aureus; details: Staphylococcus aureus, NCTC4163, applied 400 µg per disc, dash = lack of the growth inhibition area, read-out: diameter of growth inhibitory zone (GIZ)
BVDV = assay: microbe, parasite or virus in culture; format: cell-based, bovine viral diarrhoea virus; details: Bovine viral diarrhea virus isolates and strains, MDBK, in Bos taurus, read-out: BVDV EC50
[13] = system: S. epidermidis ATCC 12228; assay: MIC, twofold serial agar dilution; format: cell-based; details: Staphylococcus epidermidis, ATCC12228, 18 h, 35 °C, read-out: minimal inhibitory concentrations (MIC)
S. aureus ATCC 6538 [14] = assay: MIC, twofold serial agar dilution; format: cell-based; details: Staphylococcus aureus, ATCC6538, 18 h, 35 °C, read-out: minimal inhibitory concentrations (MIC)
S. aureus DNA gyrase = S. aureus DNA gyrase (Staphylococcus aureus, UniProt P0A0K8+P20831); assay: S. aureus DNA gyrase supercoiling assay; format: biochemical
S. aureus DNA gyrase, sequence (P0A0K8 whole entry): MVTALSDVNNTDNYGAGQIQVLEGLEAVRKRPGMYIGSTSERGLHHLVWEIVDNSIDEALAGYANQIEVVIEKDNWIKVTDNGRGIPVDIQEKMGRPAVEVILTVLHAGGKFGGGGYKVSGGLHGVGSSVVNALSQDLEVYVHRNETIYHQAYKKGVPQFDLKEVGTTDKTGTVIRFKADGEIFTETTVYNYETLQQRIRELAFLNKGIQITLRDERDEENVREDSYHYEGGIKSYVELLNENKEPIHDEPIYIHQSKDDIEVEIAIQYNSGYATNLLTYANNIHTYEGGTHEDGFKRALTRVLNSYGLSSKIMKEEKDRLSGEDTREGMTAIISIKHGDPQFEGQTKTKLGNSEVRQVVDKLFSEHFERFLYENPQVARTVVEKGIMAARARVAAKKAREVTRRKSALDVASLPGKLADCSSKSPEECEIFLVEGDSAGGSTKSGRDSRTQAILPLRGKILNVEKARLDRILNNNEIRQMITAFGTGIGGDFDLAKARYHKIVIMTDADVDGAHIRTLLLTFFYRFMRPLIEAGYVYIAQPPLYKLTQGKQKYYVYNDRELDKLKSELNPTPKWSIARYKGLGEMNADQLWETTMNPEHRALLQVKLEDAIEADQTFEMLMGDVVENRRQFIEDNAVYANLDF
S. aureus DNA gyrase, sequence (P20831 whole entry): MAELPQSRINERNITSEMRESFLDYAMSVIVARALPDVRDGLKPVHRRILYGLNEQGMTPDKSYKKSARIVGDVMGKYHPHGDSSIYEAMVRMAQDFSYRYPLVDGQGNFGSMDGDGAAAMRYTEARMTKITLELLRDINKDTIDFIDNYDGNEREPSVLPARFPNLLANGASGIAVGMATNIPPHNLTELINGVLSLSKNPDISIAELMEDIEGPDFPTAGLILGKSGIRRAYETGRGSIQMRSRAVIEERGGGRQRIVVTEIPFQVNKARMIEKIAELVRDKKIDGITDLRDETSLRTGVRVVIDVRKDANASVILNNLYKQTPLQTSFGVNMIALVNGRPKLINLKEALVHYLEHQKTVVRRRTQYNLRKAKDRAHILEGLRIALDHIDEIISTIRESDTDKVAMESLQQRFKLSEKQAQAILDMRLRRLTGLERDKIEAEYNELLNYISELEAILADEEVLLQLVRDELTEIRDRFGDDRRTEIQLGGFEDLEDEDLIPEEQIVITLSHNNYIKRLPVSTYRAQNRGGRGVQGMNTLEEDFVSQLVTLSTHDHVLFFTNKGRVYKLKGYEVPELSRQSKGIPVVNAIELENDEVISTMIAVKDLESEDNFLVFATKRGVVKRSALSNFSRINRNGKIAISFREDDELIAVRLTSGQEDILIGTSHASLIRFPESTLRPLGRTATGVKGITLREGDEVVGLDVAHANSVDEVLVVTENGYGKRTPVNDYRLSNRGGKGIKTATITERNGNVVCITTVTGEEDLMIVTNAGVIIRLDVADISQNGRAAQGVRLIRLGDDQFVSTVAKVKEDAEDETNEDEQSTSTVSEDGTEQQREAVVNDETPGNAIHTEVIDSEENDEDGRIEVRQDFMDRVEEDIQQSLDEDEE

M. luteus ATCC 10240 [15] = assay: MIC, twofold serial agar dilution; format: cell-based; details: Micrococcus luteus, ATCC10240, 18 h, 35 °C, read-out: minimal inhibitory concentrations (MIC)
S. aureus NCTC 4163 [16] = assay: MIC, twofold serial agar dilution; format: cell-based; details: Staphylococcus aureus, NCTC4163, 18 h, 35 °C, read-out: minimal inhibitory concentrations (MIC)
YFV = assay: microbe, parasite or virus in culture; format: cell-based; details: Yellow fever virus, BHK, read-out: YFV EC50
S. epidermidis (MRSE) = assay: MIC against hospital strains; details: Staphylococcus epidermidis
[17] = hospital S. aureus MSSA strain 440/11
[18] = hospital S. aureus MSSA strain 441/11
[19] = hospital S. aureus MSSA strain 442/11
[20] = hospital S. aureus MSSA strain 443/11
[21] = hospital S. aureus MSSA strain 444/11
[22] = hospital S. aureus MSSA strain 445/11
[23] = hospital S. aureus MSSA strain 446/11
[24] = hospital S. aureus MSSA strain 447/11
[25] = hospital S. aureus MSSA strain 448/11
[26] = hospital S. aureus MSSA strain 449/11
[27] = hospital S. epidermidis MRSE strain 430/11
[28] = hospital S. epidermidis MRSE strain 431/11
[29] = hospital S. epidermidis MRSE strain 432/11
[30] = hospital S. epidermidis MRSE strain 433/11
[31] = hospital S. epidermidis MRSE strain 434/11
[32] = hospital S. epidermidis MRSE strain 435/11
[33] = hospital S. epidermidis MRSE strain 436/11
[34] = hospital S. epidermidis MRSE strain 437/11
[35] = hospital S. epidermidis MRSE strain 438/11
[36] = hospital S. epidermidis MRSE strain 439/11

## S=C(NCCc1c[nH]c2ccccc12)Nc1ccc(Cl)c(Cl)c1 [Compound 6, 1-(2-(1H-indol-3-yl)ethyl)-3-(3,4-dichlorophenyl)thiourea]
In vitro [1]
  CC50: 27 µM
S. aureus ATCC 29213 [2]
  MIC: 6.25 µg/mL (≈ 17.2 µM)
In vitro [3]
  CC50: 13 µM
B. subtilis ATCC 6633 [4]
  zone of inhibition at 400 µg/disc: 15 mm
HSV-1
  EC50: > 13 µM
VV
  EC50: > 13 µM
M. luteus ATCC 9341
  zone of inhibition at 400 µg/disc: 15 mm
HIV-1
  EC50: > 45 µM
other
  melting point: 168 to 169 °C
In vitro [5]
  CC50: 45 µM
CV-B5
  EC50: > 13 µM
[6]; [17]
  MIC: 6.25 µg/mL (≈ 17.2 µM)
[6]; [18]
  MIC: 6.25 µg/mL (≈ 17.2 µM)
[6]; [19]
  MIC: 6.25 µg/mL (≈ 17.2 µM)
[6]; [20]
  MIC: 6.25 µg/mL (≈ 17.2 µM)
[6]; [21]
  MIC: 6.25 µg/mL (≈ 17.2 µM)
[6]; [22]
  MIC: 6.25 µg/mL (≈ 17.2 µM)
[6]; [23]
  MIC: 6.25 µg/mL (≈ 17.2 µM)
[6]; [24]
  MIC: 6.25 µg/mL (≈ 17.2 µM)
[6]; [25]
  MIC: 6.25 µg/mL (≈ 17.2 µM)
[6]; [26]
  MIC: 6.25 µg/mL (≈ 17.2 µM)
B. cereus ATCC 11778
  zone of inhibition at 400 µg/disc: 15 mm
S. aureus ATCC 29213 [7]
  zone of inhibition at 400 µg/disc: 15 mm
Sb-1
  EC50: > 13 µM
S. aureus ATCC 6538 [8]
  zone of inhibition at 400 µg/disc: 16 mm
[9]
  zone of inhibition at 400 µg/disc: 16 mm
B. subtilis ATCC 6633 [10]
  MIC: 12.5 µg/mL (≈ 34.3 µM)
M. luteus ATCC 10240 [11]
  zone of inhibition at 400 µg/disc: 23 mm
S. aureus NCTC 4163 [12]
  zone of inhibition at 400 µg/disc: 10 mm
BVDV
  EC50: > 27 µM
[13]
  MIC: 12.5 µg/mL (≈ 34.3 µM)
S. aureus ATCC 6538 [14]
  MIC: 12.5 µg/mL (≈ 34.3 µM)
S. aureus DNA gyrase; supercoiling of relaxed pBR322 DNA, 30 min, 37 °C, read-out: IC50 ± SEM, S. aureus DNA Gyrase (converted)
  IC50: 199 µM
M. luteus ATCC 10240 [15]
  MIC: 6.25 µg/mL (≈ 17.2 µM)
S. aureus NCTC 4163 [16]
  MIC: 6.25 µg/mL (≈ 17.2 µM)
YFV
  EC50: > 10 µM
S. epidermidis (MRSE); [27]
  MIC: 6.25 µg/mL (≈ 17.2 µM)
S. epidermidis (MRSE); [28]
  MIC: 6.25 µg/mL (≈ 17.2 µM)
S. epidermidis (MRSE); [29]
  MIC: 6.25 µg/mL (≈ 17.2 µM)
S. epidermidis (MRSE); [30]
  MIC: 6.25 µg/mL (≈ 17.2 µM)
S. epidermidis (MRSE); [31]
  MIC: 12.5 µg/mL (≈ 34.3 µM)
S. epidermidis (MRSE); [32]
  MIC: 6.25 µg/mL (≈ 17.2 µM)
S. epidermidis (MRSE); [33]
  MIC: 6.25 µg/mL (≈ 17.2 µM)
S. epidermidis (MRSE); [34]
  MIC: 6.25 µg/mL (≈ 17.2 µM)
S. epidermidis (MRSE); [35]
  MIC: 6.25 µg/mL (≈ 17.2 µM)
S. epidermidis (MRSE); [36]
  MIC: 6.25 µg/mL (≈ 17.2 µM)

## S=C(NCCc1c[nH]c2ccccc12)Nc1cccc(Cl)c1 [Compound 14, 1-(2-(1H-Indol-3-yl)ethyl)-3-(3-chlorophenyl)thiourea]
In vitro [1]
  CC50: 32 µM
S. aureus ATCC 29213 [2]
  MIC: 50 µg/mL (≈ 152 µM)
In vitro [3]
  CC50: 32 µM
B. subtilis ATCC 6633 [4]
  zone of inhibition at 400 µg/disc: 12 mm
HSV-1
  EC50: > 32 µM
VV
  EC50: > 32 µM
M. luteus ATCC 9341
  zone of inhibition at 400 µg/disc: 12 mm
HIV-1
  EC50: > 42 µM
other
  melting point: 169 to 171 °C
In vitro [5]
  CC50: 42 µM
CV-B5
  EC50: 9 ± 1.2 µM
[6]; [17]
  MIC: 25 µg/mL (≈ 75.8 µM)
[6]; [18]
  MIC: 25 µg/mL (≈ 75.8 µM)
[6]; [19]
  MIC: 25 µg/mL (≈ 75.8 µM)
[6]; [20]
  MIC: 25 µg/mL (≈ 75.8 µM)
[6]; [21]
  MIC: 12.5 µg/mL (≈ 37.9 µM)
[6]; [22]
  MIC: 25 µg/mL (≈ 75.8 µM)
[6]; [23]
  MIC: 25 µg/mL (≈ 75.8 µM)
[6]; [24]
  MIC: 25 µg/mL (≈ 75.8 µM)
[6]; [25]
  MIC: 25 µg/mL (≈ 75.8 µM)
[6]; [26]
  MIC: 25 µg/mL (≈ 75.8 µM)
B. cereus ATCC 11778
  zone of inhibition at 400 µg/disc: 15 mm
S. aureus ATCC 29213 [7]
  zone of inhibition at 400 µg/disc: 15 mm
Sb-1
  EC50: > 32 µM
S. aureus ATCC 6538 [8]
  zone of inhibition at 400 µg/disc: 13 mm
[9]
  zone of inhibition at 400 µg/disc: 12 mm
B. subtilis ATCC 6633 [10]
  MIC: 50 µg/mL (≈ 152 µM)
M. luteus ATCC 10240 [11]
  zone of inhibition at 400 µg/disc: 20 mm
S. aureus NCTC 4163 [12]
  zone of inhibition at 400 µg/disc: 13 mm
BVDV
  EC50: > 32 µM
[13]
  MIC: 50 µg/mL (≈ 152 µM)
S. aureus ATCC 6538 [14]
  MIC: 50 µg/mL (≈ 152 µM)
S. aureus DNA gyrase; data not shown
  effect against DNA gyrase (in words): not significantly effective
M. luteus ATCC 10240 [15]
  MIC: 12.5 µg/mL (≈ 37.9 µM)
S. aureus NCTC 4163 [16]
  MIC: 50 µg/mL (≈ 152 µM)
YFV
  EC50: > 6 µM
S. epidermidis (MRSE); [27]
  MIC: 25 µg/mL (≈ 75.8 µM)
S. epidermidis (MRSE); [28]
  MIC: 6.25 µg/mL (≈ 18.9 µM)
S. epidermidis (MRSE); [29]
  MIC: 25 µg/mL (≈ 75.8 µM)
S. epidermidis (MRSE); [30]
  MIC: 25 µg/mL (≈ 75.8 µM)
S. epidermidis (MRSE); [31]
  MIC: 25 µg/mL (≈ 75.8 µM)
S. epidermidis (MRSE); [32]
  MIC: 25 µg/mL (≈ 75.8 µM)
S. epidermidis (MRSE); [33]
  MIC: 50 µg/mL (≈ 152 µM)
S. epidermidis (MRSE); [34]
  MIC: 25 µg/mL (≈ 75.8 µM)
S. epidermidis (MRSE); [35]
  MIC: 50 µg/mL (≈ 152 µM)
S. epidermidis (MRSE); [36]
  MIC: 25 µg/mL (≈ 75.8 µM)
